Results taken from patent EP0337167B1, “4-Aryl-4-piperidine (or pyrrolidine or hexahydroazepine) carbinols and heterocyclic analogs thereof” (THE DU PONT MERCK PHARMACEUTICAL COMPANY, priority 1988, dated 1989).
Read-outs that look alike come from different tables or passages of the source.

Legend:
Male CF1 mice = assay: Mouse antiphenylquinone writhing (PQW) test; type: in vivo; settings: Table 3; for ED50: Mus musculus, 0.5 h, phenylquinone 1.25 mg/kg i.p., observation beginning 30 min after injection of test compound
Experimental: The anti-pheylquinone writhing (PQW) test modified from the methods of Siegmund et al. (Proc. Soc. Exp. Biol. Med. 95: 729-731, 1957) and Blumberg et al. (Proc. Exp. Biol. Med. 118: 763-767, 1965) was used to assess analgesia in mice. Male CF1 mice (Charles River Breeding Laboratories, Wilmington, MA), fasted for 16-22 h and weighing 18-23 g, were injected with randomized and coded doses of test compounds, then challenged with 1.25 mg/kg i.p. phenyl-p-benzoquinone (phenylquinone) 5 min prior to the specified observation time. The phenylquinone solution (0.1 mg/ml in 5% aqueous ethanol) was prepared daily and stored in foil-wrapped amber bottles to limit degradation. Mice were observed 10 min for the presence or absence of the characteristic abdominal constriction and stretching response beginning 30 min after injection of the test compound. Analgetic activity was calculated as the percentage of mice failing to respond to the phenylquinone challenge dose. […] Median effective doses (ED50's) and 95% confidence limits were determined numerically by the methods of Thompson (Bacteriological Rev. 11: 115-145, 1947), and Litchfield and Wilcoxon (J. Pharmacol. Exp. Ther. 96: 99.113, 1949).
The data shown in Table show the PQW ED₅₀ values for the compounds of the aforesaid examples.
Table 4 illustrates that the 3° carbinols within the scope of U.S. 4,485,109 have utility as analgesic agents.

Male mice = assay: Anorexia test from CNS screen (consumption of sweetened condensed milk spots); type: in vivo; settings: Mus musculus; fasted male mice, oral doses, 0.5 h after administration, 10 min access to milk; read-out: ED₅₀ for Anorexia
Experimental: Male mice weighing 18-25 grams and fasted over-night for 17-21 h were used in these studies. At 0.5 h after administration of graded oral doses of compound prepared in aqueous Methocel® (methylcellulose, viscosity 100 mPa·s (CPS), grade A15C, Dow Chemical Co.) and dosed at 0.1 ml per 10 grams of body weight, each mouse was transferred to an individual, clear, Lucite® compartment (13.3 cm x 12.7 cm x 12.7 cm) with a wire mesh floor having 0.64 cm x 0.64 cm openings. Five compartments were linearly arranged in each cage unit. Inside each compartment was a section of a black Lucite® bar (13 cm x 1.2 cm x 1.2 cm), in the top of which were ten spot depressions (0.8 cm diameter), each containing 0.05 ml of 50% sweetened condensed milk. Ten (10) minutes later the mice were removed from to the compartments and the number of milk spots consumed by each mouse was counted. Fractions of spots consumed were also estimated and counted. Data were expressed as % decrease from control. ED₅₀ values were estimated using linear regression analysis.

Male CF mice = assay: Antagonism of tetrabenazine-induced depression (exploratory loss and ptosis) in mice; type: in vivo; settings: Mus musculus, po, 1 h, orally, one hour post-drug, tetrabenazine methane sulfonate 52 mg/kg i.p.
Excerpt: The prevention of tetrabenazine-induced sedation and depression in mice is a standard procedure used to detect and compare antidepressant compounds. The activity of antidepressant compounds in this procedure correlates well with human efficacy. (Barnett, et al., Int. J. Neuropharmac. 8: 73-79, 1969, and Vernier, et al., "The Pharmacodynamics of Amitriptyline" in Psychsomatic Medicine (Nodine & Moyer, editors) pp. 683-690, 1962).
Male CF mice (Charles River Breeding Laboratories, Wilmingon, MA), fasted for 16-22 hours and weighing 18-25 g, were injected with randomized and coded does of test compounds, then challenged with 52 mg/kg i.p. tetrabenazine methane sulfonate 30 minutes prior to the specified observation time. The tetrabenazine methane sulfonate solution (5.2 mg/ml in distilled water) was prepared daily and stored in foil-wrapped amber bottles to limit degradation. […] Exploratory loss was defined as failing to move to the perimeter of a 12.7 cm (5 inch) (12.7 cm) circle within 15 seconds of being placed at the center of the circle. Ptosis was defined as both eyelids closed 50% or more compared to normal. Antidepressant activity was calculated as the percentage of mice failing to respond to the tetrabenazine challenge dose. […] Median effective does (ED₅₀'s) were estimated using the Moving Average method of Thompson (Bacteriological Rev. 11: 115-145, 1947).
The data in Table 5 show ED₅₀ values for the compounds of the aforesaid examples.

[1] = literature statement (A. L. Morrison et al., J.Chem. Soc., 1467, 1950); cited from earlier work
[2] = po, p.o., read-out: Mouse PQW ED₅₀ (Mg/Kg) P.O
[3] = sc, s.c., read-out: Mouse PQW ED₅₀ (Mg/Kg) S.C
[4] = read-out: Oral ED₅₀ (mg/kg) for Prevention of Ptosis

SMILES	ED50 (Male CF1 mice; [2])	ED50 (Male CF1 mice; [3])	ED50 (Male mice)	ED50 (Male CF mice; read-out: Oral ED₅₀ (mg/kg) for Prevention of Exploratory Loss)	ED50 (Male CF mice; [4])	analgesic activity compared with the parent ketones [1]	Mouse PQW remark (Male CF1 mice; remark beside S.C and P.O values)
CC(O)C1(c2cccc(Cl)c2)CCN(C)CC1 (stereo not drawn) [Example 1, 4-(3'-Chlorophenyl)-α,1-dimethyl-4-piperidinemethanol]	19 mg/kg	8.1 mg/kg	20 mg/kg	0.92 mg/kg	0.74 mg/kg		
CC(O)C1(c2ccccc2)CCN(C)CC1 (stereo not shown) [Example 3, 4-phenyl-1-methyl-4-(1-hydroxyethyl)piperidine]	38 mg/kg	19 mg/kg				much less active as analgesics than the parent ketones	
CC(O)C1(c2ccc(C(F)(F)F)cc2)CCN(C)CC1 (stereo not drawn) [Example 16, 4(4'-Trifluoromethylphenyl)-α-1-dimethylpiperidinemethanol]	> 81 mg/kg	> 81 mg/kg	22 mg/kg		28 mg/kg		Inactive
